According to patent US7572454B2, “T helper cell epitopes” (priority 1999, dated 2009):

Tests used:
[1] = test system: PBMCs from dogs immunised with CDV; assay: T-cell proliferation after in vitro stimulation of PBMC with peptide pools, tested with autologous APCs and single peptides; type: cell-based, dog; settings: for reaction with peripheral blood mononuclear cells: dogs of various breeds immunised with CDV
Description: An alternate strategy was used to increase the precursor frequency of specific T cells recognising the CDV peptides. Fresh PBMCs obtained from these hyperimmunised dogs were subjected to stimulation in vitro with pools of all 94 peptides for 30 minutes at 37° C. The cells were then washed to remove any excess peptides and cultured for 7 days. This population of T cells was then tested with autologous APCs with every single peptide as the antigen.
To confirm this observation, the same four dogs were bled again, five weeks after receiving the dose of killed virus. The PBMCs were stimulated in vitro with pools of either all 94 peptides or peptides 21-40 (because most of the activity was in this region) and after 7 days of culture the stimulated T cells were tested against individual peptides. Significant stimulatory indices were obtained with all peptides, confirming the above results. Four more dogs which received only one dose of 3 in 1 vaccine were tested using the in vitro stimulation method and all four dogs responded to the majority of peptides shown in Table 2.
Once again the same peptides and one additional peptide P32 were tested on cells from additional dogs.

LHRH = assay: Trial in BALB/c mice: antibody response to LHRH by ELISA; type: in vivo; settings: BALB/c mice
Description: The canine vaccines with CDV-F derived Th-epitopes and LHRH used in Example 3 were also used to immunise BALB/c mice to investigate if the Th-epitopes would be functional in a different animal species.
All vaccines were formulated as for Example 3 except that they were diluted further so that 100 μl doses contained 2.7 nmoles of peptide and 10 μg of Iscomatrix™ and thiomersol as preservative.
Mice were vaccinated with 100 μl of the vaccine at the base of tail. Vaccinations were given at 0 and 4 weeks and animals bled at intervals after each vaccination from the retro-orbital plexus. Effective T-cell help was determined by measuring the antibody response to LHRH by ELISA.

[2] = Table 1, Beagle Foxhound (Dog #18), hyperimmunised, PBMC stimulated with pool of all 94 peptides, 7 days culture
[3] = Table 1, Beagle Foxhound (Dog #19)
[4] = Table 1, Beagle Foxhound (Dog #20)
[5] = Table 1, Beagle Foxhound (Dog #21)
[6] = Table 3, Kelpie Foxhound (Dog #125)
[7] = Table 2, Beagle Foxhound (Dog #71), one dose of 3 in 1 vaccine
[8] = Table 2, Beagle Foxhound (Dog #72), one dose of 3 in 1 vaccine

Row | Sequence | Stimulatory index [1, 2] | Stimulatory index [1, 3] | Stimulatory index [1, 4] | Stimulatory index [1, 5] | Stimulatory index [1, 6] | Stimulatory index ([1]; Table 5, Border Collie) | Stimulatory index ([1]; Table 5, Fox Terrier) | Stimulatory index ([1]; Table 5, Grey hound) | Stimulatory index ([1]; Table 5, Kelpie Pointer) | Stimulatory index ([1]; Table 5, Poodle Shitzu) | Stimulatory index ([1]; Table 5, Terrier Cross) | further results
1 | CIRGDTSSCARTLVSGT (canine distemper virus; synthetic peptide from canine distemper virus fusion protein (CDV-F) designated peptide P68) | 6.6 | <2 | <2 | 11.7 | 2.9 | <2 | <2 | <2 | <2 | 5 | <2 | –
2 | DESSCVFVSESAICSQN (canine distemper virus; synthetic peptide from canine distemper virus fusion protein (CDV-F) designated peptide P64) | – | – | – | – | – | <2 | <2 | <2 | <2 | 50 | <2 | Stimulatory index ([1]; Table 4, Beagle Foxhound #19): 2.5; Stimulatory index ([1]; Table 4, Beagle Foxhound #20): 2.5; Stimulatory index ([1]; Table 4, Poodle Shitzu): 50.0; reaction with peripheral blood mononuclear cells [1]: react strongly
3 | EPINQALTLMTKNVKPL (canine distemper virus; synthetic peptide from canine distemper virus fusion protein (CDV-F) designated peptide P29) | 3.5 | 42 | 4.4 | <2 | 3.6 | <2 | <2 | <2 | <2 | 2 | 2 | Stimulatory index [1, 7]: 2; Stimulatory index ([1]; Table 2, Beagle Foxhound (Dog #73), one dose of 3 in 1 vaccine): 6
4 | EQSNKAIEEIREATQET (canine distemper virus; synthetic peptide from canine distemper virus fusion protein (CDV-F) designated peptide P39) | – | – | – | – | 2.9 | – | – | – | – | – | – | –
5 | FAGVVLAGVALGVATAA (canine distemper virus; synthetic peptide from canine distemper virus fusion protein (CDV-F) designated peptide P33) | – | – | – | – | 6 | 2 | <2 | <2 | 2 | <2 | <2 | Stimulatory index [1, 8]: 1.6
6 | GIALHQSNLNAQAIQSL (canine distemper virus; synthetic peptide from canine distemper virus fusion protein (CDV-F) designated peptide P36) | 6.7 | 3.7 | 3.3 | 16 | 3 | – | – | – | – | – | – | –
7 | GVALGVATAAQITAGIA [Peptide P34] | – | – | – | – | 2.1 | – | – | – | – | – | – | –
8 | IGTDNVHYKIMTRPSHQ (canine distemper virus; synthetic peptide from canine distemper virus fusion protein (CDV-F) designated peptide P22) | – | – | – | – | – | – | – | – | – | – | – | Stimulatory index [1, 8]: 2.6
9 | KLLNSVLEPINQALTLM (canine distemper virus; synthetic peptide from canine distemper virus fusion protein (CDV-F) designated peptide P28) | – | – | – | – | 1.9 | – | – | – | – | – | – | Stimulatory index [1, 7]: 2
10 | NLNAQAIQSLRTSLEQS (canine distemper virus; synthetic peptide from canine distemper virus fusion protein (CDV-F) designated peptide P37) | 6.9 | 10.9 | 8.2 | 26 | 2.5 | <2 | <2 | <2 | 2 | <2 | 2 | Stimulatory index [1, 8]: 1.7
11 | PRTSDRPVSYTMNRTRS (canine distemper virus; synthetic peptide from canine distemper virus fusion protein (CDV-F) designated peptide P8) | – | – | – | – | – | 2 | <2 | 2 | 2.8 | 100 | <2 | Stimulatory index ([1]; Table 2, Beagle Foxhound (Dog #70), one dose of 3 in 1 vaccine): 2.2; antibody titres to LHRH (LHRH): undetectable levels
12 | QPSTELEETRTSRARHS (canine distemper virus; synthetic peptide from canine distemper virus fusion protein (CDV-F) designated peptide P4) | 4.9 | <2 | 3.3 | 4.6 | – | 2 | <2 | 2 | 3.5 | 44 | 2 | –
13 | QSLRTSLEQSNKAIEEI (canine distemper virus; synthetic peptide from canine distemper virus fusion protein (CDV-F) designated peptide P38) | 2.8 | 6.7 | 3.6 | 4.2 | 2.2 | – | – | – | – | – | – | –
14 | RHSTTSAQRSTHYDPRT (canine distemper virus; synthetic peptide from canine distemper virus fusion protein (CDV-F) designated peptide P6) | 2.5 | <2 | 4 | 5.1 | – | 2 | <2 | <2 | <2 | 38 | <2 | –
15 | SGRRQRRFAGVVLAGVA (canine distemper virus; synthetic peptide from canine distemper virus fusion protein (CDV-F) designated peptide P32) | – | – | – | – | – | <2 | <2 | 2 | <2 | <2 | <2 | –
16 | SHQYLVIKLIPNASLIE (canine distemper virus; synthetic peptide from canine distemper virus fusion protein (CDV-F) designated peptide P24) | 5.8 | 9.9 | 2.8 | 29 | – | – | – | – | – | – | – | Stimulatory index [1, 7]: 3.2; Stimulatory index [1, 8]: 2.2
17 | TELLSIFGPSLRDPISA (canine distemper virus; synthetic peptide from canine distemper virus fusion protein (CDV-F) designated peptide P47) | 3.3 | 85.7 | 2.9 | 1.9 | 2.7 | – | – | – | – | – | – | –
18 | TRSRKQTSHRLKNIPVH (canine distemper virus; synthetic peptide from canine distemper virus fusion protein (CDV-F) designated peptide P10) | 2.3 | <2 | 3.2 | 9.1 | – | 3 | 2.2 | 2 | 2.4 | 50 | 2.1 | –
19 | TSTIINQSPDKLLTFIA (canine distemper virus; synthetic peptide from canine distemper virus fusion protein (CDV-F) designated peptide P74) | – | – | – | – | – | <2 | <2 | <2 | <2 | 4 | <2 | Stimulatory index ([1]; Table 4, Beagle Foxhound #20): 1.7; Stimulatory index ([1]; Table 4, Beagle Foxhound #21): 6.0; Stimulatory index ([1]; Table 4, Poodle Shitzu): 4.0; reaction with peripheral blood mononuclear cells [1]: react strongly
20 | YKIMTRPSHQYLVIKLI (canine distemper virus; synthetic peptide from canine distemper virus fusion protein (CDV-F) designated peptide P23) | – | – | – | – | 3.2 | – | – | – | – | – | – | –
